Assay results taken from ChEMBL document CHEMBL1126704, “Dibenzoxepin derivatives: thromboxane A2 synthase inhibition and thromboxane A2 receptor antagonism combined in one molecule” (J Med Chem, 1993).
Values belong to the molecule of their own block, whether it stands above or below them.

Key:
[1] = Tested for specific binding of radioligand [3H]U-46619 to thromboxane A2/prostaglandin H2 receptor in guinea pig washed platelets; design: species or system Cavia porcellus
[2] = Tested for specific binding of radioligand [3H]U-46619 to thromboxane A2 /prostaglandin H2 receptor in guinea pig washed platelets; design: species or system Cavia porcellus
Rattus norvegicus [3] = assay: Tested for the effect at 30 mg/kg through peroral route on rat blood urea nitrogen, 48 hr after reperfusion; (p<0.05); format: functional; conditions: route oral
Homo sapiens = species: Homo sapiens; assay: In vitro inhibition of U-46619 (3 uM) -induced human platelet aggregation; format: functional
Rattus norvegicus [4] = assay: Tested for the effect at 30 mg/kg through peroral route on rat blood urea nitrogen, 24 hr after reperfusion; (p<0.01); format: functional; conditions: route oral
Rattus norvegicus [5] = assay: Tested for the effect at 30 mg/kg through peroral route on rat serum creatinine, 48 hr after reperfusion; format: functional, organism-based; design: dose 30 mg/kg
Rattus norvegicus [6] = assay: Tested for the effect at 30 mg/kg through peroral route on rat serum creatinine, 24 hr after reperfusion; (p<0.05); format: functional, organism-based; design: dose 30 mg/kg
Cavia porcellus [7] = species: Cavia porcellus; assay: Tested for inhibition against thromboxane A2/prostaglandin H2 receptor in guinea pig washed platelets using radioligand [3H]U-46619 at 100 uM
[8] = system: Thromboxane-A synthase (Bos taurus); assay: Tested against TXA2 synthase in bovine platelet microsome at 10 uM
Cavia porcellus [9] = species: Cavia porcellus; assay: Tested for inhibition against thromboxane A2/prostaglandin H2 receptor in guinea pig washed platelets using radioligand [3H]U-46619 at 1 uM

Compound: O=C(O)c1ccc2c(c1)/C(=C/Cn1ccnc1)c1ccccc1CO2
Ki [1]: 600 nM

Compound: O=C(O)c1ccc2c(c1)/C(=C\Cn1ccnc1)c1ccccc1CO2
Ki [1]: 4500 nM

Compound: O=C(O)c1ccc2c(c1)/C(=N\Cc1cccnc1)c1ccccc1CO2
Ki [2]: 120 nM

IC50 (Homo sapiens): 9.6 µM
Compound: O=C(O)c1ccc2c(c1)/C(=C\Cc1cccnc1)c1ccccc1CO2
Blood urea nitrogen (Rattus norvegicus [3]): 30.37 | Blood urea nitrogen (Rattus norvegicus [4]): 34.18 | Ki [1]: 180 nM | Serum creatinine (Rattus norvegicus [5]): 1.16 | Serum creatinine (Rattus norvegicus [6]): 1.48

inhibition (Cavia porcellus [7]): 14%
Compound: C/C(=C\c1ccc(Cc2cccnc2)cc1)C(=O)O

Compound: O=C(O)c1ccc2c(c1)C(SCc1ccccc1)c1ccccc1CO2 (racemic)
Ki [1]: 40 nM | inhibition [8]: 19%

Compound: O=C(O)c1ccc2c(c1)C(SCc1cccnc1)c1ccccc1CO2 (racemic)
Ki [1]: 250 nM

inhibition (Cavia porcellus [9]): 6% | inhibition [8]: -4%
Compound: O=C(O)c1ccc2c(c1)C(NCc1ccccc1)c1ccccc1CO2 (racemic)

inhibition (Cavia porcellus [9]): 12%
Compound: O=C(O)c1ccc2c(c1)C(NCc1cccnc1)c1ccccc1CO2 (racemic)

Compound: O=C(O)c1ccc2c(c1)C(SCc1cccnc1)c1ccccc1CO2 (single isomer, unassigned; (+))
Ki [1]: 8200 nM

Compound: O=C(O)c1ccc2c(c1)C(SCc1cccnc1)c1ccccc1CO2 (stereo in doubt; (-)-3)
Ki [1]: 85 nM

IC50 (Homo sapiens): 280 µM
Compound: O=C(O)CCCC/C=C(\c1ccccc1)c1cccnc1 [(E)-ISBOGREL]
Blood urea nitrogen (Rattus norvegicus [3]): 48.38 | Blood urea nitrogen (Rattus norvegicus [4]): 58.07 | Ki [2]: 2700 nM | Serum creatinine (Rattus norvegicus [5]): 2.02 | Serum creatinine (Rattus norvegicus [6]): 2.07
